# In PubChem BioAssay (NCI):
#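 Dose response: 5 concentrations. Exposure: 48 h. Format: 96-well plates. Endpoint: linear interpolation; highest concentration if not reached. Definition used: TGI = concentration required for complete inhibition of growth.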
# What was measured:
# Test in all cases: inhibition of tumour cell growth, NCI panel, 48 h
# UO-31 renal = tested on: UO-31 renal
# NCI-H460 lung = tested on: NCI-H460 lung
# HCT-116 colon = tested on: HCT-116 colon
# OVCAR-3 ovarian = tested on: OVCAR-3 ovarian
# M19-MEL melanoma = tested on: M19-MEL melanoma
# SNB-19 CNS = tested on: SNB-19 CNS
# HL-60(TB) leukemia = tested on: HL-60(TB) leukemia
# XF 498 CNS = tested on: XF 498 CNS
# RXF 393 renal = tested on: RXF 393 renal
# HOP-92 NSCLC = tested on: HOP-92 NSCLC
# HCT-15 colon = tested on: HCT-15 colon
# SF-539 CNS = tested on: SF-539 CNS
# HT29 colon = tested on: HT29 colon
# MOLT-4 leukemia = tested on: MOLT-4 leukemia
# 786-0 renal = tested on: 786-0 renal
# A549 NSCLC = tested on: A549 NSCLC
# SF-268 CNS = tested on: SF-268 CNS
# SF-295 CNS = tested on: SF-295 CNS
# UACC-62 melanoma = tested on: UACC-62 melanoma
# SW-620 colon = tested on: SW-620 colon
# SN12C renal = tested on: SN12C renal
# K-562 leukemia = tested on: K-562 leukemia
# OVCAR-5 ovarian = tested on: OVCAR-5 ovarian
# SK-OV-3 ovarian = tested on: SK-OV-3 ovarian
# M14 melanoma = tested on: M14 melanoma
# LXFL 529 NSCLC = tested on: LXFL 529 NSCLC
# UACC-257 melanoma = tested on: UACC-257 melanoma
# DMS 273 small cell lung = tested on: DMS 273 small cell lung
# OVCAR-4 ovarian = tested on: OVCAR-4 ovarian
# CCRF-CEM leukemia = tested on: CCRF-CEM leukemia
# SK-MEL-2 melanoma = tested on: SK-MEL-2 melanoma
# DMS 114 small cell lung = tested on: DMS 114 small cell lung
# DLD-1 colon = tested on: DLD-1 colon
# HCC-2998 colon = tested on: HCC-2998 colon
# ACHN renal = tested on: ACHN renal
# MALME-3M melanoma = tested on: MALME-3M melanoma
# RPMI-8226 leukemia = tested on: RPMI-8226 leukemia
# KM12 colon = tested on: KM12 colon
# CAKI-1 renal = tested on: CAKI-1 renal
# SNB-75 CNS = tested on: SNB-75 CNS
# COLO 205 colon = tested on: COLO 205 colon
# OVCAR-8 ovarian = tested on: OVCAR-8 ovarian
# NCI-H522 lung = tested on: NCI-H522 lung
# SK-MEL-5 melanoma = tested on: SK-MEL-5 melanoma
# A498 renal = tested on: A498 renal
# EKVX NSCLC = tested on: EKVX NSCLC
# HOP-62 NSCLC = tested on: HOP-62 NSCLC
# IGROV1 ovarian = tested on: IGROV1 ovarian
# TK-10 renal = tested on: TK-10 renal
# U251 CNS = tested on: U251 CNS
# SNB-78 CNS = tested on: SNB-78 CNS
# LOX IMVI melanoma = tested on: LOX IMVI melanoma
# NCI-H23 lung = tested on: NCI-H23 lung
# SK-MEL-28 melanoma = tested on: SK-MEL-28 melanoma
# HOP-18 NSCLC = tested on: HOP-18 NSCLC
# KM20L2 colon = tested on: KM20L2 colon
# SR leukemia = tested on: SR leukemia
# NCI-H226 lung = tested on: NCI-H226 lung
# DU-145 prostate = tested on: DU-145 prostate
# MDA-MB-435 = tested on: MDA-MB-435
# BT-549 breast = tested on: BT-549 breast
# MDA-N = tested on: MDA-N
# MCF7 breast = tested on: MCF7 breast
# PC-3 prostate = tested on: PC-3 prostate
# T-47D breast = tested on: T-47D breast
# MDA-MB-231 breast = tested on: MDA-MB-231 breast
# HS 578T breast = tested on: HS 578T breast
# NCI/ADR-RES ovarian = tested on: NCI/ADR-RES ovarian
structure (smiles),measurement,setting,value
C[Si](C)(C)C1(Sc2ccccc2)SCCCS1,TGI,UO-31 renal,39.8 µM
same,TGI,NCI-H460 lung,> 100 µM
same,TGI,HCT-116 colon,> 100 µM
same,TGI,OVCAR-3 ovarian,> 100 µM
same,TGI,M19-MEL melanoma,> 100 µM
same,TGI,SNB-19 CNS,> 100 µM
same,TGI,HL-60(TB) leukemia,33.3 µM
same,TGI,XF 498 CNS,> 100 µM
same,TGI,RXF 393 renal,> 100 µM
same,TGI,HOP-92 NSCLC,> 100 µM
same,TGI,HCT-15 colon,> 100 µM
same,TGI,SF-539 CNS,75.2 µM
same,TGI,HT29 colon,> 100 µM
same,TGI,MOLT-4 leukemia,85.1 µM
same,TGI,786-0 renal,> 100 µM
same,TGI,A549 NSCLC,> 100 µM
same,TGI,SF-268 CNS,> 100 µM
same,TGI,SF-295 CNS,> 100 µM
same,TGI,UACC-62 melanoma,> 100 µM
same,TGI,SW-620 colon,> 100 µM
same,TGI,SN12C renal,> 100 µM
same,TGI,K-562 leukemia,> 100 µM
same,TGI,OVCAR-5 ovarian,> 100 µM
same,TGI,SK-OV-3 ovarian,> 100 µM
same,TGI,M14 melanoma,> 100 µM
same,TGI,LXFL 529 NSCLC,> 100 µM
same,TGI,UACC-257 melanoma,> 100 µM
same,TGI,DMS 273 small cell lung,> 100 µM
same,TGI,OVCAR-4 ovarian,> 100 µM
same,TGI,CCRF-CEM leukemia,77.8 µM
same,TGI,SK-MEL-2 melanoma,> 100 µM
same,TGI,DMS 114 small cell lung,> 100 µM
same,TGI,DLD-1 colon,> 100 µM
same,TGI,HCC-2998 colon,> 100 µM
same,TGI,ACHN renal,> 100 µM
same,TGI,MALME-3M melanoma,> 100 µM
same,TGI,RPMI-8226 leukemia,> 100 µM
same,TGI,KM12 colon,> 100 µM
same,TGI,CAKI-1 renal,> 100 µM
same,TGI,SNB-75 CNS,> 100 µM
same,TGI,COLO 205 colon,> 100 µM
same,TGI,OVCAR-8 ovarian,> 100 µM
same,TGI,NCI-H522 lung,68.6 µM
same,TGI,SK-MEL-5 melanoma,> 100 µM
same,TGI,A498 renal,> 100 µM
same,TGI,EKVX NSCLC,> 100 µM
same,TGI,HOP-62 NSCLC,76.4 µM
same,TGI,IGROV1 ovarian,> 100 µM
same,TGI,TK-10 renal,> 100 µM
same,TGI,U251 CNS,> 100 µM
same,TGI,SNB-78 CNS,> 100 µM
same,TGI,LOX IMVI melanoma,> 100 µM
same,TGI,NCI-H23 lung,> 100 µM
same,TGI,SK-MEL-28 melanoma,> 100 µM
CCCCCCN(CCCCCC)C(=O)Cc1c2n(c3ccccc13)Cc1ccccc1-2,TGI,UO-31 renal,> 100 µM
same,TGI,NCI-H460 lung,> 100 µM
same,TGI,HCT-116 colon,> 100 µM
same,TGI,OVCAR-3 ovarian,> 100 µM
same,TGI,M19-MEL melanoma,> 100 µM
same,TGI,SNB-19 CNS,> 100 µM
same,TGI,HOP-18 NSCLC,> 100 µM
same,TGI,HL-60(TB) leukemia,46.4 µM
same,TGI,RXF 393 renal,> 100 µM
same,TGI,KM20L2 colon,> 100 µM
same,TGI,HOP-92 NSCLC,79.7 µM
same,TGI,HCT-15 colon,> 100 µM
same,TGI,SF-539 CNS,> 100 µM
same,TGI,HT29 colon,> 100 µM
same,TGI,MOLT-4 leukemia,> 100 µM
same,TGI,786-0 renal,> 100 µM
same,TGI,A549 NSCLC,> 100 µM
same,TGI,SF-268 CNS,> 100 µM
same,TGI,SF-295 CNS,> 100 µM
same,TGI,UACC-62 melanoma,> 100 µM
same,TGI,SW-620 colon,> 100 µM
same,TGI,SN12C renal,> 100 µM
same,TGI,K-562 leukemia,> 100 µM
same,TGI,SK-OV-3 ovarian,> 100 µM
same,TGI,M14 melanoma,> 100 µM
same,TGI,LXFL 529 NSCLC,> 100 µM
same,TGI,UACC-257 melanoma,> 100 µM
same,TGI,DMS 273 small cell lung,> 100 µM
same,TGI,OVCAR-4 ovarian,> 100 µM
same,TGI,CCRF-CEM leukemia,90.1 µM
same,TGI,SK-MEL-2 melanoma,> 100 µM
same,TGI,SR leukemia,> 100 µM
same,TGI,DMS 114 small cell lung,82 µM
same,TGI,DLD-1 colon,> 100 µM
same,TGI,NCI-H226 lung,> 100 µM
same,TGI,HCC-2998 colon,> 100 µM
same,TGI,ACHN renal,> 100 µM
same,TGI,MALME-3M melanoma,> 100 µM
same,TGI,RPMI-8226 leukemia,> 100 µM
same,TGI,KM12 colon,> 100 µM
same,TGI,CAKI-1 renal,> 100 µM
same,TGI,SNB-75 CNS,> 100 µM
same,TGI,COLO 205 colon,> 100 µM
same,TGI,OVCAR-8 ovarian,> 100 µM
same,TGI,NCI-H522 lung,> 100 µM
same,TGI,SK-MEL-5 melanoma,> 100 µM
same,TGI,EKVX NSCLC,> 100 µM
same,TGI,HOP-62 NSCLC,> 100 µM
same,TGI,TK-10 renal,> 100 µM
same,TGI,U251 CNS,> 100 µM
same,TGI,SNB-78 CNS,> 100 µM
same,TGI,LOX IMVI melanoma,> 100 µM
same,TGI,NCI-H23 lung,> 100 µM
same,TGI,SK-MEL-28 melanoma,> 100 µM
CCOC(=O)c1nc2c(nc1C(=O)OCC)C(=O)c1ccccc1C2=O,TGI,UO-31 renal,1.18 µM
same,TGI,NCI-H460 lung,3.73 µM
same,TGI,HCT-116 colon,4.25 µM
same,TGI,OVCAR-3 ovarian,2.81 µM
same,TGI,SNB-19 CNS,3.59 µM
same,TGI,DU-145 prostate,2.48 µM
same,TGI,HL-60(TB) leukemia,1.55 µM
same,TGI,RXF 393 renal,2.81 µM
same,TGI,HOP-92 NSCLC,33.6 µM
same,TGI,HCT-15 colon,> 34.4 µM
same,TGI,SF-539 CNS,1.71 µM
same,TGI,HT29 colon,9.06 µM
same,TGI,MOLT-4 leukemia,6.31 µM
same,TGI,786-0 renal,6.33 µM
same,TGI,A549 NSCLC,9.47 µM
same,TGI,SF-268 CNS,7.62 µM
same,TGI,SF-295 CNS,1.55 µM
same,TGI,UACC-62 melanoma,0.956 µM
same,TGI,SW-620 colon,3.77 µM
same,TGI,SN12C renal,0.4 µM
same,TGI,K-562 leukemia,4.46 µM
same,TGI,OVCAR-5 ovarian,2.24 µM
same,TGI,SK-OV-3 ovarian,5.97 µM
same,TGI,MDA-MB-435,0.804 µM
same,TGI,BT-549 breast,2.76 µM
same,TGI,MDA-N,0.796 µM
same,TGI,MCF7 breast,1.17 µM
same,TGI,M14 melanoma,1.55 µM
same,TGI,PC-3 prostate,11.2 µM
same,TGI,T-47D breast,> 62.8 µM
same,TGI,UACC-257 melanoma,1.28 µM
same,TGI,OVCAR-4 ovarian,1.95 µM
same,TGI,CCRF-CEM leukemia,> 100 µM
same,TGI,SK-MEL-2 melanoma,1.5 µM
same,TGI,SR leukemia,0.68 µM
same,TGI,MDA-MB-231 breast,8.41 µM
same,TGI,NCI-H226 lung,1.5 µM
same,TGI,HCC-2998 colon,2.97 µM
same,TGI,ACHN renal,2.02 µM
same,TGI,MALME-3M melanoma,0.362 µM
same,TGI,RPMI-8226 leukemia,6.87 µM
same,TGI,HS 578T breast,0.766 µM
same,TGI,KM12 colon,14.7 µM
same,TGI,CAKI-1 renal,3.26 µM
same,TGI,SNB-75 CNS,2.12 µM
same,TGI,NCI/ADR-RES ovarian,> 35.1 µM
same,TGI,COLO 205 colon,4.36 µM
same,TGI,OVCAR-8 ovarian,6.56 µM
same,TGI,NCI-H522 lung,4.23 µM
same,TGI,SK-MEL-5 melanoma,2.19 µM
same,TGI,A498 renal,4.38 µM
same,TGI,EKVX NSCLC,3.5 µM
same,TGI,HOP-62 NSCLC,3.78 µM
same,TGI,IGROV1 ovarian,23.8 µM
same,TGI,TK-10 renal,8.83 µM
same,TGI,U251 CNS,2.74 µM
same,TGI,SK-MEL-28 melanoma,3.01 µM
